What was measured:
[1] = system: MH7A rheumatoid arthritis synovial fibroblast cell line; assay: WST-8 cytotoxicity assay; assay type: cell-based; settings: MH7A cells, 24 hours incubation, WST-8 absorbance at 450 nm
Experimental: WST-8 assay (Cayman Chemical Company, Ann Arbor, Mich.) was conducted on the MH7A rheumatoid arthritis synovial fibroblast cell line, following the manufacturer's instructions, to assess the cytotoxicity of the PSA-TMC nanoparticles. NADH produced within the mitochondria reduces WST-8 tetrazolium salt to formazan dye, which can be quantified by absorbance measurements at 450 nm. Cells were seeded into 96-well cell culture plate (2×10^4 cells per well) and cultured for 24 hr at 37° C., 5% CO2. PSA-TMC (0.5:1) was added to yield a series of concentrations from 0.3125 to ˜20 mg/mL, and the cultures were incubated for an additional 24 hours. 10 μL of WST-8 solution were added to each well. After a 90 minute incubation period, absorbance was measured with a Synergy 2 multimode microplate reader (BioTek Instruments, Winooski, Vt.) at 450 nm. The cytotoxicities of TMC TPP and alone were also evaluated following the above procedure. Untreated MH7A synovial fibroblast cultures were used as controls. Relative absorbance versus concentration was plotted for each set of additives, and a four parameter logistic, constructed with Kaleidagraph software, was used to fit the data to determine the IC50 values. Each experiment was repeated independently at least two times.

[2] = orally administered, patients; cited from earlier work
[3] = system: rheumatoid arthritis; settings: cited from earlier work

| SMILES | IC50 [1] [µg/mL] | elimination half-lives [2] | reduction in the risk of early mortality ([3]; RA patients treated with methotrexate) [%] | reduction in deaths due to RA related cardiovascular disease ([3]; individuals prescribed methotrexate) [%] | patients who developed severe fibrosis or cirrhosis ([3]; over 55 months of treatment, rheumatoid arthritis) [%] |
| --- | --- | --- | --- | --- | --- |
| O=P(O)(O)OP(=O)(O)OP(=O)(O)O [TPP, sodium tripolyphosphate] | 220 ± 40 |  |  |  |  |
| CN(Cc1cnc2nc(N)nc(N)c2n1)c1ccc(C(=O)N[C@@H](CCC(=O)O)C(=O)O)cc1 [methotrexate, Methotrexate] |  | six to fifty-five | 60 | 70 | 3 |

— patent publication US9241913B2, “Polysialic acid-based N-trimethyl chitosan gel nanoparticles for systemic drug delivery” (Syracuse University, priority 2011, dated 2016)
